We go through three compounds from PMC4155405 (Nature communications, 2014).

A short description of one series: in vitro. The following applies: dog.
In series [1] the test system is Wuhan95 (H3N2) PB1-V43I virus. Format: cell-based, influenza A virus A/Wuhan/359/95 (H3N2).
The subject of series [2] is Wuhan95 (H3N2) wild-type virus. It counts as cell-based, influenza A virus A/Wuhan/359/95 (H3N2).
The test system of series [3] is recombinant Wuhan95 (H3N2) PB1-V43I virus. Format: cell-based, influenza A virus A/Wuhan/359/95 (H3N2).
In series [4] the test system is recombinant virus Wuhan95 (H3N2). Format: cell-based, influenza A virus A/Wuhan/359/95 (H3N2).

Where two headings read alike, the source gives them in different places.

`Nc1nc2c(ncn2[C@@H]2O[C@H](CO)[C@@H](O)[C@H]2O)c(=O)[nH]1` [guanosine] came in with a CC50 in the series “in vitro” of 122 ± 0.11 µM.

For orientation: EC50 means the midpoint of the concentration-response curve. For the compound `NC(=O)c1ncn([C@@H]2O[C@H](CO)[C@@H](O)[C@H]2O)n1` [ribavirin, 1-[(2R,3R,4S,5R)-3,4-dihydroxy-5-(hydroxymethyl)oxolan-2-yl]-1H-1,2,4-triazole-3-carboxamide], the CC50 in “in vitro” amounted to 352 ± 0.04 µM. The “mutational frequency in the HA gene” value was 4.08 mutations per 10^4 nucleotides in series [1] and 5.53 mutations per 10^4 nucleotides in series [2]. Moreover, in series [2], the “fold higher mutational frequency of wild-type virus than PB1-V43I virus” value turned out to be 1.36 fold. Moreover, the “fold higher virus titre of PB1-V43I virus compared to wild-type recombinant Wuhan95 virus” value in series [3] is given as 10.8 fold. Besides, the EC50 in series [3] (read-out: EC50 (ribavirin, virus titre in MDCK cells)) came out at 73.5 µM. In addition, the genomic mutation frequency in series [4] is 15.74 per 10^4 nucleotide sequenced.

Turning to `NC(=O)c1nc(F)c[nH]c1=O` [favipiravir], the “fold increase in EC50, PB1-V43I mutant versus wild-type H3N2 virus” value in series [3] amounted to 2.24 fold. Besides, the EC50 in series [3] (read-out: EC50 (favipiravir, virus titre in MDCK cells)) worked out at 24.6 µM.
